The values below come from patent publication US6903121B1, “TREATMENT OF TUMORS WITH ACETYLENES DISUBSTITUTED WITH A PHENYL OR HETEROAROMATIC GROUP AND A SUBSTITUTED CHROMANYL, THIOCHROMANYL OR TETRAHYDROQUINOLINYL GROUP IN COMBINATION WITH OTHER ANTI-TUMOR AGENTS” (Allergan, Inc., priority 2000, dated 2005).

Test [1] concerns carcinoma cell lines. The following applies: in some of the cell lines; Fanjul et al. 1996; cited from earlier work.
Test [2] deals with MCF-7 human breast cancer lines. The settings on record: Toma et al. 1997; cited from earlier work.
Test [3] relates to T-47D cells. The experiment in a line: Cell proliferation assay (BrdU incorporation) in T-47D breast cancer cells. The class given is cell-based, human. The protocol:
(§1) The SK-BR-3, T47D and HL-60 cell cultures in which the assay procedures were performed are also well known and are available from sources well known in the art. Specifically, as is known, T47D is an estrogen receptor positive (ER^+) human breast cancer cell line, and SK-BR-3 is an estrogen receptor negative (ER^−) human breast cancer cell line. HL-60 is a well known human myeloid leukemia cell line. The assay procedure for the breast cancer lines itself is well known in the art and involves determining incorporation of 5-bromo-2′-deoxyuridine (BrdU) into the cells. As is known, incorporation of less BrdU represents less cell proliferation (inhibition of cell proliferation), and this assay is accepted in the art as a measure of anti-proliferative or anti-tumor activity of the assayed agent or agents. The assay procedure for the HL-60 cell line is also well-known in the art. It involves measuring the concentration of formazan dye which is cleaved from 3-[4,5-dimethylthiazole-2-yl]-2,5-diphenyltetrazolium bromide by viable HL-60 cells.
(§2) The estrogen receptor-positive (ER^+) cell line T-47D and the ER^− cell line SK-BR-3 were cultured in Dulbecco's modification of Eagle's medium (DMEM Gibco BRL, Gaithersburg, Md.) supplemented with 10% fetal bovine serum (HyClone, Logan, Utah), 2 mM L-glutamine and 1% antibiotics-antimycotics (Gibco BRL). Cell lines were obtained from the American Type Culture Collection (ATCC, Rockville, Md., HTB-133 and HTB-30 for T-47D and SK-BR-3, respectively). Cells were cultured at 37 °C in a humidified atmosphere containing 5% CO2.
(§3) Proliferation of cancer cell lines was determined using a commercial cell proliferation kit (Roche Diagnostics), essentially following the instructions of the manufacturer. Cells were seeded into 96-well tissue culture plates (Corning Incorporated, Corning, N.Y.) at a concentration of 3000 cells/well. After 24 hours, cells were treated continuously with tazarotene (Formula 3) and/or interferons (IFNs) or solvent alone. The appropriate concentrations of tazarotene (Formula 3) used in this study were between 10^−11 M and 10^−6M; IFN concentrations were between 10 and 1000 Unit/ml. Culture media were changed every 72 hours. After 7 days, 10 μl of 5-bromo-2′-deoxyuridine (BrdU) was added to each well. Incubation with BrdU was stopped 24 hours later by adding 100 μl of anti-BrdU antibody to each well. The amount of BrdU incorporated into the DNA of proliferating cells was assessed by measuring absorbance at […]. Each experiment was performed in triplicate in three independent experiments.
(§4) The growth inhibition observed for a combined treatment with tazarotene (Formula 3) and IFNs was analyzed for both synergistic and additive effects. The criteria for these effects have been discussed by three different groups (Aapro et al., Cancer Chemother. Pharmacol., 10: 161-166, 1983, Marth et al. J. Natl Cancer Inst., 77:1197-1202, 1986, Kurbacher et al., Cancer Letters, 103: 183-189, 1996). The mathematical multiplication of the two surviving fractions after the treatment of either with tazarotene (Formula 3) or with the respective interferon is the calculated value for simple additivity of both agents in combination. This calculated value is compared to the actual value observed to determine the nature of the combination effect. […] Synergism or inhibition was determined for each experiment individually, with the P value being 0.05 in comparison to the simple additivity hypothesis.
In general terms: Dividing cells build labelled thymidine or BrdU into new DNA.

Test [4] concerns HL-60 cells. The experiment in a line: Cell proliferation assay (MTT) in HL-60 leukemia cell line. The class given is cell-based, human. As to the method: as §1
The human myeloid leukemia cell line HL-60 was cultured in Iscove's modified Dulbecco's medium (IMDM Gibco BRL, Gaithersburg, Md.) supplemented with 10% fetal bovine serum (HyClone, Logan, Utah), 2 mM L-glutamine and 1% antibiotics-antimycotics (Gibco BRL). HL-60 cells were obtained from the American Type Culture Collection (ATCC, Rockville, Md., CCL-240). Cells were cultured at 37° C. in a humidified atmosphere containing 5% CO2.
Proliferation of the HL-60 leukemia cell line was determined by a cell viability and non-radioactive commercial cell proliferation kit (MTT assay; Roche Diagnostics, Indianapolis, Ind.), essentially by following the instructions of the manufacturer. Cells were seeded into 96-well tissue culture plates (Corning Incorporated, Corning, N.Y.) at a concentration of 1000 cells/well. After 24 hours, the cells were treated continuously with tazarotene (Formula 3) and/or IFNs or solvent alone. […] The quantification of viable cells, capable of cleaving MTT to form a formazan dye, was assessed by measuring absorbance at 590 nm. […]
as §4, with “The criteria for these effects have been discussed by three different groups (Aapro et al., Cancer Chemother. Pharmacol., 10: 161-166, 1983, Marth et al. J. Natl Cancer Inst., 77:1197-1202, 1986, Kurbacher et al., Cancer Letters, 103: 183-189, 1996).” left out

Test [5] has as its system SK-BR-3 cells. Description: Cell proliferation assay (BrdU incorporation) in SK-BR-3 breast cancer cells. It counts as cell-based, human. As to the method:
as §1, §2, §3, §4

Test [6] relates to MDA-MB 231 human carcinoma cell line. The following applies: Kurbacher et al. 1996; cited from earlier work.
Test [7] has as its system MCF-7 human carcinoma cell line. The settings on record: Kurbacher et al. 1996; cited from earlier work.

Entries after “also recorded” stand apart in the source; their conditions may differ.

Regarding `COC(=O)c1ccc(/C(C)=C/c2ccc3c(c2)C(C)(C)CCC3(C)C)cc1` [SRI 11220], the “anti-proliferative activity in combination with interferon” value in test [1] is listed as “synergistic”.
Turning to `CC1=C(/C=C/C(C)=C/C=C/C(C)=C/C(=O)O)C(C)(C)CCC1` [all trans retinoic acid], in test [2], the “combination effect with other chemotherapeutic agents such as tamoxifen (TAM)” value was “synergistic effect” and the “combination effect with α interferon (α IFN)” value was “synergistic effects”.
On to `CCOC(=O)c1ccc(C#Cc2ccc3c(c2)C(C)(C)CCS3)nc1` [tazarotene, ethyl 6-[2-(4,4-dimethylthiochroman-6-yl)ethynyl]nicotinate], for which the “anti-proliferative effect of combination with IFNα (combination effect)” value was “synergism, although not as striking as in the assays with SK-BR-3 cells” in test [3] (IFNα constant 100 U/ml, tazarotene varied, FIG. 2); “weak synergism” in test [3] (tazarotene constant 10 nM, IFNα varied 0 to 1000 U/ml, FIG. 8); “significant synergism” in test [4] (IFNα constant 100 U/ml, tazarotene varied, FIG. 13); “significant synergism” in test [4] (tazarotene constant 50 nM, IFNα varied 0 to 1000 U/ml, FIG. 15); “striking synergism” in test [5] (tazarotene constant 10 nM, IFNα varied 0 to 1000 U/ml, FIG. 7). In addition, the “anti-proliferative effect of combination with IFNβ (combination effect)” value is reported as “synergism; also recorded: synergism, although not as striking as in the assays with SK-BR-3 cells” in test [3] (IFNβ constant 100 U/ml, tazarotene varied, FIG. 4); “significant synergism” in test [3] (tazarotene constant 10 nM, IFNβ varied 0 to 1000 U/ml, FIG. 10); “significant synergism” in test [4] (IFNβ constant 100 U/ml, tazarotene varied, FIG. 14); “significant synergism” in test [4] (tazarotene constant 50 nM, IFNβ varied 0 to 1000 U/ml, FIG. 16); “synergism; also recorded: significant synergistic effect” in test [5] (IFNβ constant 10 U/ml, tazarotene varied, FIG. 3); “striking synergism” in test [5] (tazarotene constant 10 nM, IFNβ varied 0 to 1000 U/ml, FIG. 9). Besides, the “anti-proliferative effect of combination with IFNγ (combination effect)” value is given as “synergism, although not as striking as in the assays with SK-BR-3 cells” in test [3] (IFNγ constant 100 U/ml, tazarotene varied, FIG. 6); “synergism; also recorded: significant synergistic effect” in test [5] (IFNγ constant 100 U/ml, tazarotene varied, FIG. 5); “striking synergism” in test [5] (tazarotene constant 10 nM, IFNγ varied 0 to 1000 U/ml, FIG. 11). In addition, the “anti-proliferative effect of combination with IFNα (combination effect vs theoretically additive curve)” value in test [5] (IFNα constant 100 U/ml, tazarotene varied, FIG. 1) is “synergism; also recorded: synergistic effect”.
On to `O=C1O[C@H]([C@@H](O)CO)C(O)=C1O` [vitamin C], for which the “combination effect with certain chemotherapeutic anti-tumor agents” value in test [6] and in test [7] was “synergistic action” each time.
